This note sets out measurements from patent US20210330611A1, “THERAPY FOR NEUROLOGICAL DISEASES/DISORDERS” (priority 2020, published 2021).

The structures appear in SMILES notation. Where two headings read alike, the source gives them in different places.

One data set has as its system human macrophages. Kind of data set: ROS production (DHE) in fibrin-stimulated human macrophages. The format is cell-based. As to conditions: fibrin 24 h, 5 μM inhibitor, FIG. 6b. As to the method: Human macrophage cultures. Human peripheral blood mononuclear cells (PBMCs) were purchased from AllCells, LLC (Alameda, Calif.). To differentiate PBMC into monocyte-derived macrophages, 2×10^6 PBMC/mL were plated in RPMI-1640 media supplemented with 10% FBS, 1% penicillin-streptomycin (Corning), and 50 ng/ml human M-CSF (300-25, Peprotech) in tissue-culture treated dishes (Corning). After 24 h, non-adherent cells were removed, and adherent cells were cultivated for 7-8 additional days at 37° C. in 5% CO2 to promote their full differentiation into macrophages. Oxidant detection with DHE. Intracellular concentrations of ROS were measured using dihydroethidium (DHE) as described (9). Cultured BMDMs or human macrophages were incubated in medium containing 5 μM DHE (Invitrogen) for 30 min Cells were plated on 96-well, black μ-clear-bottom microtiter plates (Greiner Bio-One) pre-coated with 25 μg/ml fibrin. For GGT inhibition, BMDMs or human macrophages were pre-incubated with 5 μM acivicin or GGsTop for 1 h, and the cells were plated on fibrin-coated 96-well plates as described above. PBS was used as vehicle control. Cells were then incubated for 24-48 h and fixed with 4% PFA for 10 min. The DHE fluorescence was detected at an excitation/emission wavelength of 518 nm/605 nm using a SpectraMax M5 microplate reader (Molecular Devices) with SoftMax Pro 5.2 software (Phoenix Technologies Ltd.).

In data set [1] the test system is proinflammatory gene expression. The data set can be described thus: qRT-PCR of spinal cord extracts of MOG35-55 EAE mice. The note with it: FIG. 7h. The format is in vivo, mouse.
A further data set deals with primary rat microglia. The data set can be described thus: Cell toxicity (dead cells, size <150 μm2) in LPS assay. The note with it: primary microglia HTS, LPS stimulation; decreased size (<150 μm^2) as marker of toxicity.
The subject of a further data set is BMDMs. The format is cell-based, mouse. The note with it: 24 h, FIG. 12. As to the method:
FIGS. 12A-E. Effects of acivicin on microglia, macrophage and whole blood cell numbers. a, Representative images showing morphology and density of primary microglia treated with vehicle or acivicin for 48 h stained with nuclei marker Hoechst or CellMask Red Whole Cell Stain. Quantification of the total number of microglia. Data are representative of one experiment with technical replicates (open symbols). b, Representative confocal images showing morphology and density of control- and acivicin-treated BMDMs treated for 24 h. Scale bar, 100 μm. Insets depict digitally zoomed in areas of regions of interest. Quantification of the total number of BMDMs in the field of view. […] Cell viability of single CD45^+ cells was assessed by Sytox blue live/dead nuclei stain. Quantification of percent cell viability of CD45^+ BMDMs treated with acivicin or left untreated. Data are from 2 independent experiments with n=4 mice per group (mean±s.d.). d, Quantification of complete blood count analysis of white blood cells (WBCs), red blood cells (RBC), platelets (PLT) (left) and composition of WBCs (right) of blood samples from healthy mice treated with saline or acivicin for 10 days. […] Quantification of total microglia cell numbers in healthy mice treated with acivicin or saline. […]

Data set [2] relates to LPS injection in the substantia nigra. Kind of data set: LPS-induced neurodegeneration in substantia nigra, TH and Iba-1 immunohistochemistry. The format is in vivo, mouse. Here is the method:
Stereotactic LPS injection and drug treatment. Mice were anaesthetized with isoflurane and placed in a stereotactic apparatus (David Kopf Instruments). LPS (Sigma-Aldrich) was dissolved in endotoxin-free distilled water (HyClone) and was diluted to 1 μg/ml with PBS. LPS (2 μl of 1 μg/ml) or PBS was slowly injected (0.3 μl/min) using a 10-μl Hamilton syringe attached to a 33-G needle into the substantia nigra at coordinates (anteroposterior, 3.0 mm; mediolateral, 1.3 mm; dorsoventral, 4.7 mm from the bregma, according to Paxinos and Watson) Animals received acivicin (5 mg/kg) or saline intraperitoneally beginning 5 days before LPS injection and for 7 days after LPS injection. After 12 h of the LPS injection, the substantia nigra area was immediately collected on ice and kept at −80° C. for later analysis of GGT activity. After 7 d of the LPS injection, mice were perfused with 4% PFA, and the brains were post-fixed in 4% PFA overnight at 4° C. […] Images were acquired with all-in-one BZ-X700 fluorescence microscope. Images were quantified using NIH ImageJ (version 1.50) by blinded observers.

A further data set deals with 2D2 T cells. Kind of data set: Antigen-specific T-cell proliferation (BrdU, 2D2 T cells with MOG35-55-pulsed BMDMs). The format is cell-based, mouse. The note with it: 5, 0.5 or 0.05 μM, FIG. 14G, H. Here is the method:
T-cell proliferation assay. For antigen-specific T cell proliferation, näive CD4+ T cells were magnetically sorted from the TCR-transgenic 2D2 mice using naïve CD4+ T cell isolation kits (Miltenyi Biotec). […]. For non-antigen-specific T cell proliferation, naïve CD4^+ T cells were treated with acivicin and stimulated with mouse T-activator CD3/CD28 Dynabeads (Thermo Fisher Scientific) for 3 d. Cells were then fixed, permeabilized, and stained with FITC-conjugated anti-BrdU (BrdU Flow Kits, BD Biosciences).

The nature of a further data set: in vitro. As to conditions: rat.
Data set [3] is classed as in vivo, mouse. As to conditions: healthy mice, 10 days, FIG. 12. Here is the method:
Blood sampling and hematological analysis. Hematological analysis was carried out for mice treated with saline or acivicin for 10 days. Blood samples were collected from the heart of each anesthetized mouse via cardiac puncture. The complete blood cell counts were measured with an automated blood count analyzer (Hemavet, Drew Scientific Inc).

The subject of data set [4] is fibrin-induced microglia activation. Kind of data set: Image-based assay of fibrin-induced microglia activation (HTS and dose response). The format is cell-based, rat.

Take `N[C@H](C(=O)O)[C@@H]1CC(Cl)=NO1` [Acivicin, (2S)-2-amino-2-[(5S)-3-chloro-4,5-dihydro-1,2-oxazol-5-yl] acetic acid]: the “ROS generation (DHE) in human macrophages” value in the data set on human macrophages is “decreased”. In [1], the proinflammatory gene expression result was “markedly reduced”. Besides, the “LPS % cell toxicity” value in the data set on primary rat microglia came to 4%. For the same molecule, the “macrophage cell number in vitro” value with BMDMs is given as “did not affect”. Moreover, the “microglial activation (Iba-1)” value in data set [2] (7 d after LPS, FIG. 15c) was “decreased”. Also, the “dopaminergic neuronal survival (TH)” value in data set [2] (mouse, in vivo) is recorded as “improved”. Further, the “encephalitogenic T cell proliferation (BrdU) with APCs” value in the data set on 2D2 T cells is recorded as “suppressed”. Also, the IC50 in the data set “in vitro” is over 20000 nM; in data set [4] (Rattus norvegicus, Microglia, 48 h, Table 1, dose response 0.001-20 μM, triplicates, primary rat microglia, 48 h, read-out: Fibrin IC50), 2 µM; in data set [4] (Rattus norvegicus, Microglia, Table 7, read-out: fib_IC50), 0.57 µM; in [4] (Rattus norvegicus, Microglia, dose response, fibrin-induced microglia activation, read-out: Fibrin IC50), 2 µM; in data set [4] (Rattus norvegicus, Microglia, fibrin-induced microglia activation, dose response, read-out: Fibrin IC50 (uM) (Suppl. Table 7)), 2 µM. In data set [3], the “total cell blood count in vivo” value was “did not affect”. For the same molecule, the inhibition at 10 µM in [4] (Rattus norvegicus, Microglia, primary microglia HTS, fibrin stimulation, increased cell size (>800 μm^2) as marker of activation, read-out: Fibrin % inhibition) is 90%. Further, the fibrin-induced microglial activation result in [4] (dose-dependent, FIG. 6a) is given as “inhibited”.
